Active and inactive are the calls of the source. No cut-off for these calls is given here.
Assays:
Homo sapiens = species: Homo sapiens; test: Selectivity ratio of Ki for human melatonin MT1 receptor to Ki for human melatonin MT2 receptor
[1] = biological target: T1, Melatonin receptor type 1B (Homo sapiens, UniProt P49286); test: Displacement of [3H]melatonin from human melatonin MT2 receptor expressed in CHO cells after 60 mins by scintillation counting; assay type: cell-based
T1 sequence (P49286 whole entry): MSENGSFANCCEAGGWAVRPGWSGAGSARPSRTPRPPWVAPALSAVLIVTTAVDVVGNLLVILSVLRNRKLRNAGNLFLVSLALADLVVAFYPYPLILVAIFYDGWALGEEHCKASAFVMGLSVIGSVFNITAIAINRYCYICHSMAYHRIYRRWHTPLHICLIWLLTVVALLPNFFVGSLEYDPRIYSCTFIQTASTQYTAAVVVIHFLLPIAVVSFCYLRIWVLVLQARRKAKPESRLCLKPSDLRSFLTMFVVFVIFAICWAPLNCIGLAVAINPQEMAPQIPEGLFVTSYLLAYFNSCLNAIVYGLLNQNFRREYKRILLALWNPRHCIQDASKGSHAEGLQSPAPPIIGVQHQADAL

[2] = biological target: Melatonin receptor type 1A (Homo sapiens, UniProt P48039); test: Displacement of [3H]melatonin from human melatonin MT1 receptor expressed in CHO cells after 60 mins by scintillation counting; assay type: cell-based
[3] = Lipophilicity, log P of the compound; assay type: physicochemical; settings: octanol/water
[4] = biological target: T2, Melatonin receptor type 1B (Homo sapiens) (UniProt P49286); test: Agonist activity at human MT2 receptor expressed as CHO cells assessed as intracellular Ca2+ accumulation by FLIPR assay; assay type: functional, cell-based
T2 sequence (whole entry): T1 sequence (P49286 whole entry)

Sequence of Melatonin receptor type 1A (P48039 whole entry): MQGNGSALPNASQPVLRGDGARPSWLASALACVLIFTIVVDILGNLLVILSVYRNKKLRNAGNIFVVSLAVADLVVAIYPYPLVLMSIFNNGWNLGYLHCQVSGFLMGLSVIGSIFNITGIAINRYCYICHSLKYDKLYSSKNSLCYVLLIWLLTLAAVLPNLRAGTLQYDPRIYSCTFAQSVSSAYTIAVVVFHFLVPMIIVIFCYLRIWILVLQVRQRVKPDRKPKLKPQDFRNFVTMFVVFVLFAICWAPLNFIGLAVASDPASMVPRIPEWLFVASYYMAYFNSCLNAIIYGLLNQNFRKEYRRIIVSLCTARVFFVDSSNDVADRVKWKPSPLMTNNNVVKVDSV

Row | Structure (SMILES) | Ratio Ki (Homo sapiens) | Ki [1] [nM] | Ki [2] [nM] | logP [3] | Activity [4]
1 | CCC(=O)NCCCc1cccc(OC)c1 | 12 | 7.07 | 85.4 |  | 
2 | CCCOc1ccc(OC)cc1CCCNC(C)=O | 189 | 2.12 | 400 |  | 
3 | COc1cc(CCCNC(C)=O)ccc1O | 20.5 | 12.6 | 257 |  | 
4 | COc1ccc2[nH]cc(CCNC(C)=O)c2c1 [MELATONIN] |  |  |  | 2.16 | 
5 | COc1ccc(OCc2ccc(Br)cc2F)c(CCCNC(C)=O)c1 |  | 102 |  |  | 
6 | COc1ccc(O)c(CCCNC(C)=O)c1 | 8.22 | 46.2 | 379 |  | 
7 | CCOc1ccc(OC)cc1CCCNC(C)=O | 116 | 1.59 | 183 |  | 
8 | COc1ccc(COc2ccc(OC)cc2CCCNC(C)=O)cc1 | 97 | 27.9 | 2700 |  | 
9 | CCC(=O)NCCCc1cc(OC)ccc1OCc1ccccc1 | 473000 | 0.00055 | 263 |  | Active
10 | COc1ccc(OCCc2ccccc2)c(CCCNC(C)=O)c1 | 219 | 13.4 | 2930 |  | 
11 | COc1cccc(COc2ccc(CCCNC(C)=O)cc2OC)c1 | 13.9 | 105 | 1460 |  | 
12 | COc1ccc(OCCCc2ccccc2)c(CCCNC(C)=O)c1 |  | 72.2 |  |  | 
13 | COc1cc(COc2ccc(OC)cc2CCCNC(C)=O)cc(OC)c1 |  | 0.0326 |  |  | 
14 | CCC(=O)NCCCc1ccc(OCc2ccccc2)c(OC)c1 | 16.7 | 121 | 2010 |  | 
15 | COc1cccc(CCCNC(C)=O)c1 | 31 | 0.751 | 23.3 |  | 
16 | COc1ccc(OCc2ccccn2)c(CCCNC(C)=O)c1 | 1150 | 1.61 | 1840 |  | 
17 | COc1cccc(COc2ccc(OC)cc2CCCNC(C)=O)c1 |  |  | 705 |  | 
18 | COc1ccc(OC)c(CCCNC(C)=O)c1 | 49.1 | 26.1 | 1280 |  | 
19 | CCCC(=O)NCCCc1cc(OC)ccc1OCc1ccccc1 | 1.14e+06 | 0.00103 | 1170 |  | Active
20 | COc1ccc(OCc2ccccc2)c(CCCNC(=O)c2ccccc2)c1 |  | 2300 |  |  | 
21 | COc1ccc(OCc2ccccc2)c(CCCNC(C)=O)c1 | 18700 | 0.0471 | 879 |  | 
22 | COc1cc(CCCNC(C)=O)ccc1OCc1ccccc1 | 130 | 69.3 | 8980 |  | 

Reference: ChEMBL document CHEMBL1156969 (Bioorg Med Chem Lett, 2010)
